{"source": "patent US12240811B2", "about": "“N-heterocyclic five-membered ring-containing capsid protein assembly inhibitor, pharmaceutical composition and uses thereof” (CHIA TAI TIANQING PHARMACEUTICAL GROUP CO., LTD., priority 2019, dated 2025)", "key": {"[1]": {"test": "Plasma protein binding assay, human plasma", "type": "in vitro ADME", "protocol": "(§1) Formulation of plasma sample: 495 μL of blank plasmas of the corresponding species (mouse, rat, dog, monkey, and human) were drawn respectively, and thereto was added 5 μL of the corresponding test compound solution or positive control to give plasma sample solutions having a plasma drug concentration of the compound of 1 μM, and 10 μM, respectively (formulated with acetonitrile).\n(§2) The pre-treated dialysis membrane was placed in a high-throughput equilibrium dialysis device, and 100 μL of the plasma sample solution and PBS buffer solution were drawn and added respectively to both sides of the dialysis membrane (sample side and buffer side) (n=3). After the equilibration device was sealed with a film, it was incubated at 37° C. overnight (100 rpm). After dialysis equilibrium was reached, 50 μL samples were drawn from the sample side and the buffer side, respectively, and the reaction was terminated by adding ice acetonitrile containing an internal standard.\n(§3) Sample pre-treatment: To 50 μL of the plasma-side sample was added 450 μL of ice acetonitrile containing an internal standard, and then precipitated. After vortexing for 5 minutes, the sample was centrifugated (12000 rpm, 4° C.) for 10 minutes. 75 μL of the supernatant was pipetted, and 75 μL of ultrapure water was added thereto for dilution and mixed uniformly. 1 μL of the resulting solution was injected for analysis. […]"}, "[2]": {"test": "In vitro cytotoxicity (CCK-8)", "type": "cell-based", "conditions": "human, HepG2.2.15 cells", "protocol": "A bottle of HepG2.2.15 cells (Wuhan Institute of Virology) in good exponential growth state was taken, washed once by adding 5 mL PBS, and then thereto was added 2 mL trypsin. The sample was digested in a cell culture incubator, and taken out from time to time and observed under a microscope. When the cells just fell off, 1 mL trypsin was discarded. The residual liquid was placed in a cell culture incubator at 37° C. and digested for 8-15 min. The cells were taken out and observed under a microscope (whether the cells were individually round and there was no adhesion between the cells). 5 mL MEM medium was added for cell resuspension. The cells were then subjected to cell counting with a cell counter, diluted with a complete medium, and adjusted to a cell density of 2*10^5 cells/mL. Then the cells were seeded at 100 μL/well in a 96-well plate with a multi-channel pipette (the 96-well plate was coated with 50 μg/mL Collagen I solution in advance), and cultured in a constant temperature CO2 incubator for 24 h. The cells were treated by drug administration, and fresh medium containing the compound was used to replace the spent medium every 3 days. […] After 1 to 2 hours, the absorbance was detected with microplate reader at 450 nm, and the inhibition rate and the CC50 were calculated."}, "[3]": {"test_system": "HBV DNA in HepG2.2.15 cells", "test": "In vitro cell HBV DNA inhibitory activity in HepG2.2.15 cells", "type": "cell-based", "conditions": "Hepatitis B virus, 144 h, 6 days treatment, intracellular capsid HBV DNA by qPCR, read-out: EC50, anti-HBV activity in HepG2.2.15 cells", "protocol": "A bottle of HepG2.2.15 (Wuhan Institute of Virology) or HepAD38 cells in good exponential growth state was taken, washed once by adding 5 mL PBS, and then thereto was added 3 mL trypsin. After digesting at room temperature for 5 min, 2 mL trypsin was discarded, and then the sample was placed in a cell culture incubator and digested for 10 min. The cells were taken out and observed under a microscope (whether the cells were individually round and there was no adhesion between the cells). 10 mL complete medium was added to terminate the digestion. After pipetting into a single cell suspension, 10 μL of the cell suspension was taken out for cell counting with a cell counter, and then diluted with a complete medium and adjusted to a cell density of 1*10^5 cells/mL. […]\nCompounds dissolved in DMSO were subjected to two-fold gradient dilution (10 concentrations in total) with complete medium. […] After lysing at room temperature for 10 min, DNA was extracted, and HBV DNA in the intracellular viral capsid was measured by real-time fluorescence quantitative PCR. The inhibition rate was calculated based on the Ct value, and the EC50 value was calculated by the four-parameter method."}, "[4]": {"test": "Plasma protein binding assay, mouse plasma", "type": "in vitro ADME", "protocol": "as §1, §2, §3"}, "[5]": {"test": "Stability of liver microsomes in vitro, human", "type": "in vitro ADME", "protocol": "300 μL of a final incubation system contains 30 μL of liver microsomes (protein concentration: 0.15 mg/mL, Corning), 30 μL NADPH+MgCl2, 3 μL substrate (formulated with acetonitrile), and 237 μL PBS buffer. Duplicate incubation systems of 0.3 mL each were formulated for each species. A total volume of 270 μL of a uniformly mixed solution of the substrate and the enzyme was formulated in each tube, the solution and NADPH were pre-incubated at 37° C. for 5 minutes, respectively. Then 30 μL of the mixed solution of NADPH+MgCl2 was added for reaction. 50 μL of the reaction solution was taken out at 0, 10, 30, and 60 mins, and the reaction was terminated with 300 μL of ice acetonitrile containing an internal standard.\nSample pre-treatment: To 50 μL of the incubated sample was added 300 μL of ice acetonitrile containing diazepam as an internal standard and then precipitated. After vortexing for 5 minutes, the sample was centrifugated (12000 rpm, 4° C.) for 10 minutes. 75 μL of the supernatant was pipetted into a 96-well plate, and then diluted with 75 μL ultrapure water and mixed uniformly. 0.5 μL of the resulting solution was injected and analyzed by LC-MS/MS."}}, "data": [{"smiles": "Cc1[nH]c(C(=O)C(=O)N[C@@H](C)C(F)(F)F)c(C)c1C(=O)Nc1ccc(F)c(C#N)c1", "note": "[Example 1, (S)—N-(3-cyano-4-fluorophenyl)-2,4-dimethyl-5-(2-oxo-2-((1,1,1-trifluoroprop-2-yl)amino)acetyl)-1H-pyrrole-3-carboxamide]", "values": [{"measurement": "Binding rate (%) Human", "setting": "[1]; 1 μM", "value": 97.3, "unit": "%"}, {"measurement": "Binding rate (%) Human", "setting": "[1]; 10 μM", "value": 97.3, "unit": "%"}, {"measurement": "CC50 at 6 days", "setting": "[2]", "value": "> 100000", "unit": "nM"}, {"measurement": "EC50", "setting": "[3]", "value": 17.4, "unit": "nM"}, {"measurement": "Binding rate (%) Mouse", "setting": "[4]; 1 μM", "value": 85.4, "unit": "%"}, {"measurement": "Binding rate (%) Mouse", "setting": "[4]; 10 μM", "value": 85.5, "unit": "%"}, {"measurement": "Remaining (%) of human liver microsomes at 60 min", "setting": "[5]", "value": 99, "unit": "%"}]}]}
